Where “and” joins values, the source holds several entries; their conditions need not be identical. Equal entries are not always repeated. Where no end group is shown, it is not given here.
Experiments:
[1] = test system: Eschericia coli ATCC25922; test: Radial diffusion assay (RDA), E. coli; assay type: cell-based, Escherichia coli; design: Data (RDA antimicrobial activity, single replicates) / Mean (RDA antimicrobial activity): unit not given here; settings: for Data (RDA antimicrobial activity, single replicates) / Mean (RDA antimicrobial activity): E. coli; for Data (RDA antimicrobial activity, single replicates): individual replicate; for Mean (RDA antimicrobial activity): mean of 3
Procedure: (§1) Peptides. Peptides were from Sigma-Genosys, generated by a peptide synthesis platform (PEPscreen®, Custom Peptide Libraries, SigmaGenosys). Yield was ˜1-6 mg, and peptide length 20 amino acids. MALDI-ToF Mass Spectrometry was perfomed on these peptides. Average Crude Purity of 20mers was ˜60%. Peptides were supplied lyophilized and in a 96-well tube rack. Prior to biological testing the PEPscreen peptides were diluted in dH2O (5 mM stock), and stored at −20 C. This stock solution was used for the subsequent experiments.
(§2) Eschericia coli ATCC25922, Staphylococcus aureus ATCC29213, and the fungal isolate Candida albicans ATCC90028 were obtained from the Department of Bacteriology, Lund University Hospital.
(§3) Radial diffusion assays (RDA) were performed essentially as described earlier (Lehrer, R. I., Rosenman, M., Harwig, S. S., Jackson, R. & Eisenhauer, P. (1991) Ultrasensitive assays for endogenous antimicrobial polypeptides, J Immunol Methods. 137, 167-73). Briefly, bacteria (E. coli, S. aureus) or fungi (C. albicans) were grown to midlogarithmic phase in 10 ml of full-strength (3% w/v) trypticase soy broth (TSB) (Becton-Dickinson, Cockeysville, Md.). The microorganisms were washed once with 10 mM Tris, pH 7.4. 4×10^6 bacterial cfu or 1×10^5 fungal cfu was added to 5 ml of the underlay agarose gel, consisting of 0.03% (w/v) TSB, 1% (w/v) low-electroendoosmosistype (Low-EEO) agarose (Sigma, St Louise Mo.) and a final concentration of 0.02% (v/v) Tween 20 (Sigma). The underlay was poured into a Ø 85 mm petri dish. After agarose solidified, 4 mm-diameter wells were punched and 6 μl of test sample was added to each well. Plates were incubated at 37° C. for 3 hours to allow diffusion of the peptides. The underlay gel was then covered with 5 ml of molten overlay (6% TSB and 1% Low-EEO agarose in dH2O). Antimicrobial activity of a peptide is visualized as a clear zone around each well after 18-24 hours of incubation at 37° C. for bacteria and 28° C. for Candida albicans. Other examples of peptides that were screened and found to show an increased effect against the above mentioned microorgansism are listed below. Some of the results are found in table 1c showing the effects against C. albicans, table 1d E. coli and table 1e S. aureus.

[2] = test system: Staphylococcus aureus ATCC29213; test: Radial diffusion assay (RDA), S. aureus; assay type: cell-based; design: Data (RDA antimicrobial activity, single replicates) / Mean (RDA antimicrobial activity): unit not given here; settings: for Data (RDA antimicrobial activity, single replicates) / Mean (RDA antimicrobial activity): S. aureus; for Data (RDA antimicrobial activity, single replicates): individual replicate; for Mean (RDA antimicrobial activity): mean of 3
Procedure: as §1, §2, §3

[3] = test system: Candida albicans ATCC90028; test: Radial diffusion assay (RDA), C. albicans; assay type: cell-based; design: unit not given here; settings: for RDA Mean, C. albicans / RDA Data (single replicates), C. albicans: Table 1c; for RDA Data (single replicates), C. albicans: individual values
Procedure: as §1, §2, §3

## GKR-22: growth factor derived peptide, untagged parent of GKR22WWW; sequence not printed (GKRKKKGKGLGKKRDPCLRKYK; listed as Homo sapiens)
[1]; peptide 0.1 μM
  Data (RDA antimicrobial activity, single replicates): 0
  Mean (RDA antimicrobial activity): 0.00
[1]; peptide 0.5 μM
  Data (RDA antimicrobial activity, single replicates): 0
  Mean (RDA antimicrobial activity): 0.00
[1]; peptide 1 μM
  Data (RDA antimicrobial activity, single replicates): 0
  Mean (RDA antimicrobial activity): 0.00
[1]; peptide 5 μM
  Data (RDA antimicrobial activity, single replicates): 1.88 and 1.85 and 2.07
  Mean (RDA antimicrobial activity): 1.93
[1]; peptide 10 μM
  Data (RDA antimicrobial activity, single replicates): 2.07 and 3.47 and 2.74
  Mean (RDA antimicrobial activity): 2.76
[1]; peptide 50 μM
  Data (RDA antimicrobial activity, single replicates): 3.68 and 3.65 and 3.61
  Mean (RDA antimicrobial activity): 3.65
[1]; peptide 100 μM
  Data (RDA antimicrobial activity, single replicates): 4.5 and 5.24 and 4.19
  Mean (RDA antimicrobial activity): 4.64
[2]; peptide 0.1 μM
  Data (RDA antimicrobial activity, single replicates): 0
  Mean (RDA antimicrobial activity): 0.00
[2]; peptide 0.5 μM
  Data (RDA antimicrobial activity, single replicates): 0
  Mean (RDA antimicrobial activity): 0.00
[2]; peptide 1 μM
  Data (RDA antimicrobial activity, single replicates): 0.4 and 0.26 and 0.25
  Mean (RDA antimicrobial activity): 0.30
[2]; peptide 5 μM
  Data (RDA antimicrobial activity, single replicates): 1.87 and 1.67 and 2.03
  Mean (RDA antimicrobial activity): 1.86
[2]; peptide 10 μM
  Data (RDA antimicrobial activity, single replicates): 2.37 and 2.46 and 1.95
  Mean (RDA antimicrobial activity): 2.26
[2]; peptide 50 μM
  Data (RDA antimicrobial activity, single replicates): 3.03 and 3.09 and 2.96
  Mean (RDA antimicrobial activity): 3.03
[2]; peptide 100 μM
  Data (RDA antimicrobial activity, single replicates): 3.88 and 3.94 and 3.07
  Mean (RDA antimicrobial activity): 3.63
[3]; peptide 0.1 μM
  RDA Mean, C. albicans: 0.00
  RDA Data (single replicates), C. albicans: 0.00
[3]; peptide 0.5 μM
  RDA Mean, C. albicans: 0.00
  RDA Data (single replicates), C. albicans: 0.00
[3]; peptide 1 μM
  RDA Mean, C. albicans: 0.00
  RDA Data (single replicates), C. albicans: 0.00
[3]; peptide 5 μM
  RDA Mean, C. albicans: 0.00
  RDA Data (single replicates), C. albicans: 0.00
[3]; peptide 10 μM
  RDA Mean, C. albicans: 0.00
  RDA Data (single replicates), C. albicans: 0.00
[3]; peptide 50 μM
  RDA Mean, C. albicans: 1.04
  RDA Data (single replicates), C. albicans: 1.04 and 1.08 and 1.01
[3]; peptide 100 μM
  RDA Mean, C. albicans: 3.16
  RDA Data (single replicates), C. albicans: 3.66 and 3.31 and 2.50

## GKRKKKGKGLGKKRDPCLRKYKWWW [GKR-22-WWW]
[1]; peptide 0.1 μM
  Data (RDA antimicrobial activity, single replicates): 0
  Mean (RDA antimicrobial activity): 0.00
[1]; peptide 0.5 μM
  Data (RDA antimicrobial activity, single replicates): 0.14 and 0.85 and 0.17
  Mean (RDA antimicrobial activity): 0.39
[1]; peptide 1 μM
  Data (RDA antimicrobial activity, single replicates): 2.74 and 3.2 and 2.59
  Mean (RDA antimicrobial activity): 2.84
[1]; peptide 5 μM
  Data (RDA antimicrobial activity, single replicates): 2.97 and 3.58 and 3.2
  Mean (RDA antimicrobial activity): 3.25
[1]; peptide 10 μM
  Data (RDA antimicrobial activity, single replicates): 5.67 and 5.68 and 5.48
  Mean (RDA antimicrobial activity): 5.61
[1]; peptide 50 μM
  Data (RDA antimicrobial activity, single replicates): 6.61 and 6.64 and 6.47
  Mean (RDA antimicrobial activity): 6.57
[1]; peptide 100 μM
  Data (RDA antimicrobial activity, single replicates): 7.8 and 8.04 and 8.12
  Mean (RDA antimicrobial activity): 7.99
[2]; peptide 0.1 μM
  Data (RDA antimicrobial activity, single replicates): 0
  Mean (RDA antimicrobial activity): 0.00
[2]; peptide 0.5 μM
  Data (RDA antimicrobial activity, single replicates): 0.36 and 0.49 and 0.6
  Mean (RDA antimicrobial activity): 0.48
[2]; peptide 1 μM
  Data (RDA antimicrobial activity, single replicates): 3.6 and 3.67 and 3.78
  Mean (RDA antimicrobial activity): 3.68
[2]; peptide 5 μM
  Data (RDA antimicrobial activity, single replicates): 3.87 and 4.57 and 4.53
  Mean (RDA antimicrobial activity): 4.32
[2]; peptide 10 μM
  Data (RDA antimicrobial activity, single replicates): 6.04 and 6.87 and 5.73
  Mean (RDA antimicrobial activity): 6.21
[2]; peptide 50 μM
  Data (RDA antimicrobial activity, single replicates): 7.12 and 8.12 and 7.41
  Mean (RDA antimicrobial activity): 7.55
[2]; peptide 100 μM
  Data (RDA antimicrobial activity, single replicates): 7.4 and 8.78 and 8.05
  Mean (RDA antimicrobial activity): 8.08
[3]; peptide 0.1 μM
  RDA Mean, C. albicans: 0.00
  RDA Data (single replicates), C. albicans: 0.00
[3]; peptide 0.5 μM
  RDA Mean, C. albicans: 0.00
  RDA Data (single replicates), C. albicans: 0.00
[3]; peptide 1 μM
  RDA Mean, C. albicans: 0.00
  RDA Data (single replicates), C. albicans: 0.00
[3]; peptide 5 μM
  RDA Mean, C. albicans: 0.00
  RDA Data (single replicates), C. albicans: 0.00
[3]; peptide 10 μM
  RDA Mean, C. albicans: 0.66
  RDA Data (single replicates), C. albicans: 0.50 and 0.94 and 0.54
[3]; peptide 50 μM
  RDA Mean, C. albicans: 1.65
  RDA Data (single replicates), C. albicans: 1.95 and 1.59 and 1.40
[3]; peptide 100 μM
  RDA Mean, C. albicans: 5.55
  RDA Data (single replicates), C. albicans: 5.30 and 5.74 and 5.62

## HKHGHLHLKHKNKGKKNGKH [Peptide 36]
[1]; Table 1a, RDA clear zone, ingrowth counted
  E.coli ATCC 25922 Mean, Ingrowth* counted: 0.000
[1]; Table 1a, RDA clear zone, ingrowth not counted
  E.coli ATCC 25922 Mean, Ingrowth not counted: 0.000
[2]; Table 1a, RDA clear zone
  S. aureus ATCC 29213 Mean: 0.000
[3]; Table 1a, RDA clear zone
  Candida albicans ATCC 90028 Mean: 0.000

Source: patent US8227406B2, “Antimicrobial peptides” (Dermagen AB, priority 2006, dated 2012)
